test system: not given; experiment: not given; conditions: not given

Compound | melting point [°C]
Cc1c(S(C)(=O)=O)c2cccc(Cl)c2n1CC1=NCCN1 [Example 4, 7-Chloro-1-(4,5-dihydro-1H-imidazol-2-ylmethyl)-3-methanesulfonyl-2-methyl-1H-indole] | 221 to 223

biological target: T1, alpha-1A adrenoceptors expressed in CHO-K1 cells (clone 13) (Homo sapiens, UniProt P35348); experiment: Functional assay for alpha-1A/L agonist activity (FLIPR, Fluo-3 intracellular calcium); type: cell-based; conditions: CHO-K1 cells expressing alpha-1A adrenoceptors, FLIPR calcium fluorescence, room temperature
T1 construct: expressed in transfected cells; host or cells: CHO-K1 (clone 13)
T1 sequence (P35348 1-466): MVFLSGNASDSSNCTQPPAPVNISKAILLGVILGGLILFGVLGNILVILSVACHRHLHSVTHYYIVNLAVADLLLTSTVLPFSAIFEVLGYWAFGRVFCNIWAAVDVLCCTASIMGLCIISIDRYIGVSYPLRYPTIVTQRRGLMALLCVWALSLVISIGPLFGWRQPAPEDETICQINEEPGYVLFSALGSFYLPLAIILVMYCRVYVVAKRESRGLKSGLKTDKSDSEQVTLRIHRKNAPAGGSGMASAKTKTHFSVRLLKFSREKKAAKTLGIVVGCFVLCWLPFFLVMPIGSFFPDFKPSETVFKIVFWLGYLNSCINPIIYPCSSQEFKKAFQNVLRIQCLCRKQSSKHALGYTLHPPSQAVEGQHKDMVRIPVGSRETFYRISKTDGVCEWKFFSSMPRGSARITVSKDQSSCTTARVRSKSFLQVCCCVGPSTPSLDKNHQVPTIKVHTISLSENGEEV
From the text: The inhibitory activity of compounds of this invention in vitro was examined using fluorescent dye determination of intracellular calcium concentrations as described in Example 6.
Functional Assay for Alpha-1A/L Agonist Activity
The inhibitory activity of compounds of this invention in vitro was examined using fluorescent dye determination of intracellular calcium concentrations.
Chinese hamster ovary cells CHO-K1 expressing the alpha-1A adrenoceptors (clone 13) are washed 4 times (approx. 300 μL/well) with fluorometric imaging plate reader (FLIPR) buffer (Hank's buffered saline solution (HBSS), 2 mM CaCl2, 10 mM HEPES, 2,5 mM probenecid, 100 μM ascorbic acid), with a final volume of 150 μL/well. Cells are loaded with 50 μL/well of 8 μM Fluo-3 AM (Molecular Probes, Eugene, Oreg.), for a final concentration of 2 μM Fluo-3 AM. Cells are then incubated for 60 min at 37° C. Following dye loading, cells are washed 4 times (approx. 300 μL/well) with FLIPR buffer with a final volume of 150 μL/well.
The Test compound, control compound and reference compound are run in quadruplicate, 8-point curves on each plate with a final assay concentration range of 10^−4M to 10^−11M for each compound. All compounds are dissolved in DMSO at 10 mM, and serially diluted in FLIPR buffer.
The assay plate is placed in the FLIPR incubation chamber and a baseline fluorescence measurement (excitation @ 488 nm and emission @ 510-570 nm) is obtained (15 sec interval). An experimental run is then commenced. The reaction is started with the addition of 50 μL/well (at 4× final concentration) of test, control, or reference compound solution from the agonist plate to the assay plate to all 96 wells simultaneously. Fluorescence is measured for 120 sec at 1 sec intervals. Then, a second addition of 5 μM ionomycin (50 μL/well from 5× concentration ionomycin plate) is added to the assay plate. Fluorescence is measured for 30 sec at 1 sec intervals. All experiments are conducted at room temperature.
For each assay plate, responses (increase in peak fluorescence) in each well following addition of agonist (test, control and reference) are determined. These responses may be expressed as raw CFU (Corrected Fluorescence Units), as a % maximum ionomycin response or other unit as determined by the investigator.
For test compound, control compound (Noerepinephrine (NE) bitartrate), and reference compound, the concentration producing a 50% increase in control response (EC50) is determined using iterative curve-fitting methods. Excel spreadsheet or Kaleidagraph software are used to fit data to the general logistic function (E=B+Emax·A^nH/A^nH+EC50^nH), where B is the corrected baseline fluorescence units (defined as zero), A is the concentration of agonist added and nH is the Hill slope (constrained to unity). EC50 values and maxima (Emax) for each curve can be estimated objectively using this software.
In addition the intrinsic activity (α) is determined. Intrinsic activity is defined as the maximum response to test agonist divided by the maximum response to a full agonist acting through the same receptor. For these experiments, the full agonist is defined as Norepinephrine (NE) bitartrate (control).

Compound | EC50 [nM] | pEC50
CN(C)S(=O)(=O)c1cn(CC2=NCCN2)c2cc(Cl)ccc12 [6-Chloro-1-(4,5-dihydro-1H-imidazol-2-ylmethyl)-1H-indole-3-sulfonic acid dimethylamide] | 9.12 | 
CS(=O)(=O)c1cn(CC2=NCCN2)c2ccccc12 [1-(4,5-Dihydro-1H-imidazol-2-ylmethyl)-3-methanesulfonyl-1H-indole] | 2.29 | 
6-Bromo-1-(4,5-dihydro-1H-imidazol-2-ylmethyl)-1H-indole-3-carboxylic acid dimethylamide [Example 17] |  | 8.34
COc1ccc2c(S(C)(=O)=O)c(C)n(CC3=NCCN3)c2c1 [1-(4,5-Dihydro-1H-imidazol-2-ylmethyl)-3-methanesulfonyl-6-methoxy-2-methyl-1H-indole] | 10 | 
Cc1c(S(C)(=O)=O)c2c(S(C)(=O)=O)cccc2n1CC1=NCCN1 [1-(4,5-Dihydro-1H-imidazol-2-ylmethyl)-3,4-bis-methanesulfonyl-2-methyl-1H-indole] | 1050 | 
Cc1c(S(C)(=O)=O)c2cccc(C(F)(F)F)c2n1CC1=NCCN1 [1-(4,5-Dihydro-1H-imidazol-2-ylmethyl)-3-methanesulfonyl-2-methyl-7-trifluoromethyl-1H-indole] | 141 | 
Cc1ccc2c(c1)c(S(C)(=O)=O)c(C)n2CC1=NCCN1.Cl [1-(4,5-Dihydro-1Hmidazol-2-ylmethyl)-3-methanesulfonyl-2,5-dimethyl-1H-indole] | 23.4 | 
Cc1c(S(C)(=O)=O)c2ccc(S(C)(=O)=O)cc2n1CC1=NCCN1 [1-(4,5-Dihydro-1H-imidazol-2-ylmethyl)-3,6-bis-methanesulfonyl-2-methyl-1H-indole] | 60300 | 
Cc1c(S(C)(=O)=O)c2ccccc2n1CC1=NCCN1 [1-(4,5-Dihydro-1H-imidazol-2-ylmethyl)-3-methanesulfonyl-2-methyl-1H-indole] | 0.832 | 

same assay, conditions: maximum response relative to full agonist norepinephrine bitartrate; CHO-K1 alpha-1A cells

Compound | IA (intrinsic activity)
CN(C)S(=O)(=O)c1cn(CC2=NCCN2)c2cc(Cl)ccc12 [6-Chloro-1-(4,5-dihydro-1H-imidazol-2-ylmethyl)-1H-indole-3-sulfonic acid dimethylamide] | 1.00
CS(=O)(=O)c1cn(CC2=NCCN2)c2ccccc12 [1-(4,5-Dihydro-1H-imidazol-2-ylmethyl)-3-methanesulfonyl-1H-indole] | 1.07
6-Bromo-1-(4,5-dihydro-1H-imidazol-2-ylmethyl)-1H-indole-3-carboxylic acid dimethylamide [Example 17] | 1.02
COc1ccc2c(S(C)(=O)=O)c(C)n(CC3=NCCN3)c2c1 [1-(4,5-Dihydro-1H-imidazol-2-ylmethyl)-3-methanesulfonyl-6-methoxy-2-methyl-1H-indole] | 1.05
Cc1c(S(C)(=O)=O)c2c(S(C)(=O)=O)cccc2n1CC1=NCCN1 [1-(4,5-Dihydro-1H-imidazol-2-ylmethyl)-3,4-bis-methanesulfonyl-2-methyl-1H-indole] | 1.04
Cc1c(S(C)(=O)=O)c2cccc(C(F)(F)F)c2n1CC1=NCCN1 [1-(4,5-Dihydro-1H-imidazol-2-ylmethyl)-3-methanesulfonyl-2-methyl-7-trifluoromethyl-1H-indole] | 0.96
Cc1ccc2c(c1)c(S(C)(=O)=O)c(C)n2CC1=NCCN1.Cl [1-(4,5-Dihydro-1Hmidazol-2-ylmethyl)-3-methanesulfonyl-2,5-dimethyl-1H-indole] | 0.93
Cc1c(S(C)(=O)=O)c2ccc(S(C)(=O)=O)cc2n1CC1=NCCN1 [1-(4,5-Dihydro-1H-imidazol-2-ylmethyl)-3,6-bis-methanesulfonyl-2-methyl-1H-indole] | 0.18
Cc1c(S(C)(=O)=O)c2ccccc2n1CC1=NCCN1 [1-(4,5-Dihydro-1H-imidazol-2-ylmethyl)-3-methanesulfonyl-2-methyl-1H-indole] | 1.00
